One experiment concerns the target T1, human CYP4A11 (Homo sapiens, UniProt Q02928).
T1 construct: host or cells: Escherichia coli (membrane fraction)
T1 sequence (Q02928 5-519): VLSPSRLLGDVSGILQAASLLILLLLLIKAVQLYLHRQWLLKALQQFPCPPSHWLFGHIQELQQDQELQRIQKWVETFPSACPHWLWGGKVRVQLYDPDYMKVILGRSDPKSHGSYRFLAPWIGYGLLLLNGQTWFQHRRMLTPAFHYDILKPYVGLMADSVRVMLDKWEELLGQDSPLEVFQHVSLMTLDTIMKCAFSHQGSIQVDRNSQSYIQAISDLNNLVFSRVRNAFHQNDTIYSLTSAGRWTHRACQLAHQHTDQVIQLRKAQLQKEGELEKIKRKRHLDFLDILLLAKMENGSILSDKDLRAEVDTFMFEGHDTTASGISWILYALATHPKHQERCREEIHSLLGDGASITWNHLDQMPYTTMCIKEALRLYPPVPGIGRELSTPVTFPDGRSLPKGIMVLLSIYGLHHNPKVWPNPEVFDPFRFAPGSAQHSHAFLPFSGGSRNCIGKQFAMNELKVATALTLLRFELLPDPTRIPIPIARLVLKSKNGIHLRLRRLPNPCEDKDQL
The experiment in a line: CYP4A11 inhibition test (Test Example 1). In kind it is biochemical. The conditions noted are these: Escherichia coli membrane fraction expressing human CYP4A11, 60 μM luciferine derivative, room temperature 60 minutes, luminescence. The protocol:
(§1) (1) Inhibition Test for Each Compound of the Present Invention Against 20-HETE Producing Enzymes (CYP4F2 and CYP4A11)
(§2) In the CYP4F2 inhibition test, the reaction solution containing each compound [final concentration of 50 mM, KPO4 (pH 7.4), 2.5 μM, luciferine derivative and 1 mM NADPH] was added to an Escherichia coli membrane fraction (100 μg/mL, protein) in which human CYP4F2 had been expressed. In the CYP4A11 inhibition test, the reaction solution containing each compound [final concentration of 100 mM, Tris-HCl (pH 7.5), 60 μM, luciferine derivative, 1.3 mM NADP^+, 3.3 mM Glucose 6-Phosphate, 3.3 mM MgCl2 and 0.4 U/mL Glucose 6-Phosphate dehydrogenase] was added to an Escherichia coli membrane fraction (100 μg/mL, protein) in which human CYP4A11 had been expressed. Following this, the membrane fraction was left to stand at room temperature for 60 minutes to perform an enzymatic reaction. After the reaction, a luciferine detection reagent was added, and the luminescence value was measured using a plate reader.
(§3) A: Luminescence value with addition of compound
(§4) B: Luminescence value without addition of compound and enzyme
(§5) C: Luminescence value without addition of compound

The target of a further experiment is T2, human CYP4F2 (Homo sapiens, UniProt P78329).
T2 construct: host or cells: Escherichia coli (membrane fraction)
T2 sequence (P78329 5-520): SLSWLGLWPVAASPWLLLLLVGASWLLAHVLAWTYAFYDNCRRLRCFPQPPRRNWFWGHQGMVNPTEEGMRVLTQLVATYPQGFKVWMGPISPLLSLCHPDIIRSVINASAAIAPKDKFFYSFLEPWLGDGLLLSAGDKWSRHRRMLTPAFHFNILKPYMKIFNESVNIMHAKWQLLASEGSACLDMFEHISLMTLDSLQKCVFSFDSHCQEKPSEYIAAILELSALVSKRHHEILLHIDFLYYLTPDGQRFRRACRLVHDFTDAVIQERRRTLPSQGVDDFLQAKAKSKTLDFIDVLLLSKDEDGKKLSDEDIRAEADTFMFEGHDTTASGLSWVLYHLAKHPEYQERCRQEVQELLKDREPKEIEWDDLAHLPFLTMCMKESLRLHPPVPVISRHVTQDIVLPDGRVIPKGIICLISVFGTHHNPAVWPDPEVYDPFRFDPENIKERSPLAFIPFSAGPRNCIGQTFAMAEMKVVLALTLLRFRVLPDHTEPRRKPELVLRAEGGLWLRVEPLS
The experiment in a line: CYP4F2 inhibition test (Test Example 1). In kind it is biochemical. The conditions noted are these: Escherichia coli membrane fraction expressing human CYP4F2, 2.5 μM luciferine derivative, room temperature 60 minutes, luminescence. The protocol:
as §1, §2, §3, §4, §5

The results in this text go back to US20210040062A1, “AZOLE-SUBSTITUTED PYRIDINE COMPOUND” (TAISHO PHARMACEUTICAL CO., LTD., priority 2016, published 2021).

pIC50: −log10 of the molar value.

Usually pIC50 stands for −log10 of the IC50, conventionally taken in molar units. Lower therefore signals a high IC50. Regarding `CS(=O)(=O)c1cccc(COc2ccc(-c3[nH]ncc3CO)nc2)c1` [Example 49-1, (5-{5-[(3-Methylsulfonylphenyl)methoxy]pyridin-2-yl}-1H-pyrazol-4-yl)methanol], the pIC50 against human CYP4A11 is 6.26; against human CYP4F2 it was 5.74.
The corresponding values for `CC(C)CC(=O)N1CC(S(=O)(=O)N2CCC[C@H](COc3ccc(-c4ccn[nH]4)nc3)C2)C1` [Example 1-19] are 6.72 and 8.43.
In the case of `O=C(N1CCC1)N1CCC(COc2ccc(-c3ccn[nH]3)nc2)CC1` [Example 7-1, (Azetidin-1-yl)[4-({[6-(1H-pyrazol-5-yl)pyridin-3-yl]oxy}methyl)piperidin-1-yl]methanone], the pIC50 against human CYP4A11 is 6.10; against human CYP4F2 it was 7.66.
For `COc1cn[nH]c1-c1ccc(OCc2cccc(S(C)(=O)=O)c2)cn1` [Example 24-8], in that order: 6.36 and 5.59.
The corresponding values for `CC(C)OC(=O)N1CCC[C@H](COc2ccc(-c3ccn[nH]3)nc2)C1` [Example 1-14] are 6.48 and 7.41.
The corresponding values for `O=c1ccc2cc(COc3ccc(-c4ccn[nH]4)nc3)ccc2o1` [Example 25-11] are 5.80 and 8.52.
As to `CC(C)C(=O)N1CCC(COc2ccc(-c3ccn[nH]3)nc2)CC1` [Example 1-2], the pIC50 is 6.28 against human CYP4A11 and 6.74 at human CYP4F2.
Regarding `COc1cc(COc2ccc(-c3ccn[nH]3)nc2)cc(OC)c1` [54-11], the values for the pIC50 on human CYP4A11 and on human CYP4F2 were 6.16 and 6.49, respectively.
With `CCCCNC(=O)CC(=O)N1CCC[C@@H](COc2ccc(-c3ccn[nH]3)nc2)C1` [Example 2-17], the pIC50 on human CYP4A11 is 6.57; against human CYP4F2, 6.32.
The corresponding values for `CN(C)S(=O)(=O)N1CC[C@@H](COc2ccc(-c3ccn[nH]3)nc2)C1` [Example 10-12] are 6.92 and 6.68.
The corresponding values for `CC(C)OC(=O)N1CCC[C@@H](COc2ccc(-c3ccn[nH]3)nc2)C1` [Example 1-9] are 6.68 and 6.89.
`CC(C)COC(=O)N1CCC(CCOc2ccc(-c3ccn[nH]3)nc2)CC1` [Example 1-30]: the pIC50 against human CYP4A11 is 6.96; against human CYP4F2, 7.96.
For the compound `O=C(NCCC(=O)N1CCC[C@@H](COc2ccc(-c3ccn[nH]3)nc2)C1)C1CCOCC1` [Example 4-5], the pIC50 was 6.43 against human CYP4A11 and 7.03 against human CYP4F2.
For `CCCCNC(=O)NCC(=O)N1CCC[C@@H](COc2ccc(-c3ccn[nH]3)nc2)C1` [Example 3-41], in that order: 6.64 and 6.74.
The corresponding values for `CC(=O)N1CCC[C@@H](COc2ccc(-c3ccn[nH]3)nc2)C1` [Example 1-6] are 7.15 and 6.19.
With `CC(C)OC(=O)N1CCC(COc2ccc(-c3ccn[nH]3)nc2)CC1` [Example 1-4], the negative-log IC50 (pIC50) against human CYP4A11 is 6.29; against human CYP4F2, 6.92.
The corresponding values for `C[C@@H](CC(=O)N1CCC[C@@H](COc2ccc(-c3ccn[nH]3)nc2)C1)NC(=O)OC(C)(C)C` [Example 2-14] are 7.11 and 7.54.
Turning to `C[C@@H](CNC(=O)OC(C)(C)C)C(=O)N1CCC[C@@H](COc2ccc(-c3ccn[nH]3)nc2)C1` [Example 2-13], the figures for the pIC50 against human CYP4A11 and at human CYP4F2 were 7.00 and 7.14, respectively.
As to `O=C(CS(=O)(=O)c1ccccc1)N1CCC[C@@H](COc2ccc(-c3ccn[nH]3)nc2)C1` [Example 3-30], the pIC50 is 6.96 at human CYP4A11 and 6.60 at human CYP4F2.
On to `CC(C)OC(=O)N1CCC(CCOc2ccc(-c3ccn[nH]3)nc2)CC1` [Example 1-29, Propan-2-yl 4-(2-{[6-(1H-pyrazol-5-yl)pyridin-3-yl]oxy}ethyl)piperidin-1-carboxylate], for which the pIC50 was 6.72 at human CYP4A11 and 7.07 against human CYP4F2.
Consider `O=S(=O)(N1CCCCC1)N1CCC[C@@H](COc2ccc(-c3ccn[nH]3)nc2)C1` [Example 11-1, 5-{[(3R)-1-(Piperidine-1-sulfonyl)piperidin-3-yl]methoxy}-2-(1H-pyrazol-5-yl)pyridine], for which the pIC50 against human CYP4A11 is 7.57; against human CYP4F2, 8.37.
`O=C(C1CC(F)(F)C1)N1CCC(COc2ccc(-c3ccn[nH]3)nc2)CC1` [Example 2-4]: the pIC50 is 5.96 against human CYP4A11 and 7.03 against human CYP4F2.
For `CC(=O)N1CCC(COc2ccc(-c3ccns3)nc2)CC1` [Example 42-1, 1-(4-{[6-(1,2-Thiazol-5-yl)pyridin-3-yl]oxymethyl}piperidin-1-yl)ethanone], in that order: 6.96 and 7.36.
In the case of `CS(=O)(=O)N1CCC[C@@H](COc2ccc(-c3cn[nH]c3)nc2)C1` [Example 46-4], the pIC50 against human CYP4A11 was 7.41; against human CYP4F2 it was 5.85.
For `O=C(CC1CCCCC1)N1CCC[C@@H](COc2ccc(-c3ccn[nH]3)nc2)C1` [Example 3-32], in that order: 6.34 and 7.82.
The corresponding values for `CC(C)(C)OC(=O)N1CC(C(=O)N2CCC[C@@H](COc3ccc(-c4ccn[nH]4)nc3)C2)C1` [Example 3-46] are 6.54 and 7.64.
The corresponding values for `CC(C)S(=O)(=O)N1CC[C@H](COc2ccc(-c3ccn[nH]3)nc2)C1` [Example 10-15] are 6.68 and 7.00.
In the case of `O=C(N1CCC(COc2ccc(-c3ccn[nH]3)nc2)CC1)N1CC(F)C1` [Example 7-2], the pIC50 was 5.96 on human CYP4A11 and 7.54 against human CYP4F2.
As to `O=S(=O)(CC1CC1)c1cc(COc2ccc(-c3ccn[nH]3)nc2)ccn1` [Example 14-11], the pIC50 against human CYP4A11 is 7.52; against human CYP4F2, 7.77.
Turning to `CC(=O)N1CC(CCCOc2ccc(-c3ccn[nH]3)nc2)C1` [Example 16-3], the pIC50 on human CYP4A11 is 5.34; against human CYP4F2, 7.82.
With `CC(C)NC(=O)N1CCC(COc2ccc(-c3ccn[nH]3)nc2)CC1` [Example 5-1, N-(Propan-2-yl)-4-({[6-(1H-pyrazol-5-yl)pyridin-3-yl]oxy}methyl)piperidin-1-carboxamide], the negative-log IC50 (pIC50) against human CYP4A11 was 5.92; at human CYP4F2, 6.77.
The corresponding values for `CC(CO)(CO)C(=O)N1CCC[C@@H](COc2ccc(-c3ccn[nH]3)nc2)C1` [Example 4-4] are 6.51 and 5.35.
The corresponding values for `CC(C)OC(=O)NCCS(=O)(=O)N1CCC[C@H](COc2ccc(-c3ccn[nH]3)nc2)C1` [Example 1-21] are 7.49 and 7.74.
For `CN(C)C(=O)N1CCC(COc2ccc(-c3ccn[nH]3)nc2)CC1` [Example 6-1, N,N-Dimethyl-4-({[6-(1H-pyrazol-5-yl)pyridin-3-yl]oxy}methyl)piperidin-1-carboxamide], in that order: 6.19 and 7.72.
Regarding `O=S1(=O)CCCC(CCOc2ccc(-c3cn[nH]c3)nc2)C1` (stereo not drawn) [Example 43-6], the pIC50 against human CYP4A11 is 6.38; at human CYP4F2 it was 5.46.
Turning to `CCOc1cc(COc2ccc(-c3ccn[nH]3)nc2)cc(OCC)c1` [54-12], the pIC50 was 5.44 against human CYP4A11 and 6.19 on human CYP4F2.
As for `CN(C)S(=O)(=O)N1CC[C@@H](COc2cnc(-c3ccn[nH]3)c(F)c2)C1` [Example 10-18], the pIC50 against human CYP4A11 is 7.32; against human CYP4F2 it was 6.96.
The corresponding values for `CC(C)S(=O)(=O)N1CCC[C@@H](COc2ccc(-c3ccn[nH]3)nc2)C1` [Example 10-4] are 7.48 and 7.14.
The corresponding values for `CC(=O)N(C)[C@H]1CC[C@@H](Oc2ccc(-c3ccn[nH]3)nc2)CC1` [Example 20-4] are 5.62 and 6.74.
